{"source": "patent US20110124021A1", "about": "“PHOS[…] ACID SYNTHASE AND CANCER” (priority 2007, published 2011)", "assay_type_in_all_cases": "cell-based, human", "key": {"[1]": {"tested_on": "FAS phosphorylation in HCT-116 cell line", "assay": "Effect of okadaic acid on FAS phosphorylation in HCT-116 cells (FIG. 7A)", "conditions": "brief treatment with 100 nM okadaic acid; HCT-116 colon cancer cell line", "description": "(§1) The relationship between FAS phosphorylation and cancer was investigated with a panel of the following human immortalized non-transformed cell lines: IMR-90 fetal lung, hPS human prostate and human cancer cell lines: HCT-116 colon, PPC-1 prostate, and SKBr3 breast. FAS enzyme levels (adjusted to total cellular protein) were quantitated by immunoblot and normalized to IMR-90. Both IMR-90 and hPS non-transformed cell lines had relatively low levels of FAS expression compared to the cancer cell lines, which ranged from 4.3 to 22 fold elevations compared to IMR-90 cells. The high level of FAS expression in SKBr3 cells is consistent with the observation that 28% of its cytosolic protein is FAS (Thompson et al., Biochem. Biophys Acta, 662: 125-130 (1981)).\n(§2) Because the FAS expression levels in this panel of cells is consistent with observations made in vivo, the possibility of differential FAS phosphorylation in these cells was investigated. […] No immunoreactivity was detected with an anti-phosphotyrosine or an anti-phosphoserine antibody, although additional antibodies and FAS proteins were not tested. Additional human cancer cell lines, such as LnCAP, OVCAR-3, SKOV3 (ovary), RKO (colon), H460, LX7 (lung), CAPAN-1, and PANC-1 (pancreas) can also be assessed for differential FAS phosphorylation as described above. […]"}, "total cellular FAS": {"tested_on": "total cellular FAS", "assay": "Effect of okadaic acid treatment on total cellular FAS (FIG. 7B)", "conditions": "cell line not stated", "description": "FIGS. 7A and 7B, illustrates that phosphorylated FAS increases with okadaic acid treatment (part A) while total FAS protein is reduced (part B).\nThe effect of okadaic acid, a protein phosphatase 2A inhibitor, in FAS phosphorylation was studied."}, "[2]": {"tested_on": "FAS phosphorylation in PPC-1 cell line", "assay": "Effect of okadaic acid on FAS phosphorylation in PPC-1 cells (FIG. 7A)", "conditions": "brief treatment with 100 nM okadaic acid; PPC-1 prostate cancer cell line", "description": "as §1, §2"}}}
{"smiles": "C=C1[C@@H](O)[C@@H]2O[C@]3(CC[C@H](/C=C/[C@@H](C)[C@@H]4CC(C)=C[C@@]5(O[C@H](C[C@@](C)(O)C(=O)O)CC[C@H]5O)O4)O3)CC[C@H]2O[C@@H]1[C@@H](O)C[C@H](C)[C@H]1O[C@@]2(CCCCO2)CC[C@H]1C", "note": "[okadaic acid]", "values": [{"measurement": "ratio of phosphorylated FAS to total FAS", "setting": "[1]", "value": "increases substantially"}, {"measurement": "total FAS protein", "setting": "total cellular FAS", "value": "reduced"}, {"measurement": "ratio of phosphorylated FAS to total FAS", "setting": "[2]", "value": "increases substantially"}]}
